Consider twelve compounds from US20230357210A1, “NITROGEN-CONTAINING CONDENSED HETEROCYCLIC COMPOUND HAVING AN OXIME GROUP, AGRICULTURAL OR HORTICULTURAL HERBICIDE COMPRISING THE COMPOUND, AND METHOD FOR USING THE COMPOUND OR THE HERBICIDE” (NIHON NOHYAKU CO., LTD., priority 2020, published 2023).

The term melting point denotes the temperature of the solid-liquid transition. Turning to `CCON=C(N)c1ccc(S(C)(=O)=O)c(-c2nc3cc(C(F)(F)F)ccc3n2C)n1` [1-205, N′-ethoxy-5-methylsulfonyl-6-[1-methyl-5-(trifluoromethyl)benzimidazol-2-yl]pyridine-2-carboxamidine], the melting point lay in the range of 149 to 150 °C.

Consider `CCON=C(N)c1ccc(S(=O)(=O)NC)c(-c2nc3cc(C(F)(F)F)ccc3n2C)n1` [1-210, N′-ethoxy-5-methylsulfamoyl-6-[1-methyl-5-(trifluoromethyl)benzimidazol-2-yl)pyridine-2-carboxamidine], for which the melting point was in the range of 173 to 174 °C.

As to `CCON=C(NC)c1ccc(S(C)(=O)=O)c(-c2nc3cc(C(F)(F)F)ccc3n2C)n1` [1-216, N′-ethoxy-N-methyl-5-methylsulfonyl-6-[1-methyl-5-(trifluor omethyl)benzimidazol-2-yl]pyridine-2-carboxamidine], the melting point fell in the range of 154 to 155 °C.

Compound `CCON=C(c1ccc(S(C)(=O)=O)c(-c2nc3cc(C(F)(F)F)ccc3n2C)n1)N(C)C` [1-220, N′-ethoxy-N,N-dimethyl-5-methylsulfonyl-6-[1-methyl-5-(trifluoromethyl)benzimidazol-2-yl)pyridine-2-carboxamidine] had a melting point of 150 to 151 °C.

In the case of `CCO/N=C/c1ccc(C(=O)O)c(-c2nc3cc(SC(F)(F)F)ccc3n2C)n1` [2-81, 6-[(E)-ethoxyiminomethyl]-2-[1-methyl-5-(trifluoromethylthio)benzimidazol-2-yl]pyridine-3-carboxylic acid], the melting point was in the range of 195 to 196 °C.

In turn, `CCO/N=C/c1ccc(C(=O)N(C)C)c(-c2nc3cc(SC(F)(F)F)ccc3n2C)n1` [2-95, 6-[(E)-ethoxyiminomethyl]-N,N-dimethyl-2-[1-methyl-5-(trifluoromethylthio)benzimidazol-2-yl]pyridine-3-carboxamide] displayed a melting point of 118 to 119 °C.

Take `CCO/N=C(\C)c1ccc(C(=O)OC)c(-c2nc3cc(SC(F)(F)F)ccc3n2C)n1` [2-105, 6-[(E)-N-ethoxy-C-methyl-carbonimidoyl]-2-[1-methyl-5-(trifluoromethylthio)benzimidazol-2-yl]pyridine-3-carboxylic acid methyl ester]: the melting point is 121 to 122 °C.

Compound `CCON=C(N)c1ccc(C(=O)OC)c(-c2nc3cc(C(F)(F)F)ccc3n2C)n1` [2-123, N′-ethoxy-5-methoxycarbonyl-6-[1-methyl-5-(trifluoromethyl)benzimidazol-2-yl)pyridine-2-carboxamidine] yielded a melting point of 46 to 47 °C.

`CCON=C(N)c1cc(C)c(Cl)c(-c2nc3cc(C(F)(F)F)ccc3n2C)n1` [3-65, 5-chloro-N′-ethoxy-4-methyl-6-[1-methyl-5-(trifluoromethyl)benzimidazol-2-yl]pyridine-2-carboxamidine] yielded a melting point of 144 to 145 °C.

For the compound `CCON=C(N)c1cc(C)c(S(C)(=O)=O)c(-c2nc3cc(C(F)(F)F)ccc3n2C)n1` [3-70, N′-ethoxy-4-methyl-5-methylsulfonyl-6-[1-methyl-5-(trifluor omethyl)benzimidazol-2-yl]pyridine-2-carboxamidine], the melting point lay in the range of 246 to 247 °C.

Turning to `CCO/N=C(\N)c1cnc(S(=O)(=O)NC)c(-c2nc3cc(C(F)(F)F)ccc3n2C)n1` [7-46, (Z)-N′-ethoxy-6-(1-methyl-5-(trifluoromethyl)-1H-benzo[d]imidazol-2-yl)-5-(N-methylsulfamoyl)pyrazine-2-carboximidamide], the melting point was 244 to 246 °C.

In turn, `CCO/N=C(\N)c1ncc(S(=O)(=O)NC)c(-c2nc3ccccc3n2C)n1` [8-6, (Z)-N′-ethoxy-4-(1-methyl-1H-benzo[d]imidazol-2-yl)-5-(N-methylsulfamoyl)pyrimidine-2-carboximidamide] registered a melting point of 222 to 223 °C.
